From patent US11731985B2, “Compositions and methods for treating cancer” (Hb Therapeutics Inc., priority 2018, dated 2023)
Like-named read-outs stand apart in the source and are kept apart here.

Test system: LN229 cells
Assay: Cell viability assay, LN229 cells
Type: cell-based, human
Conditions: read-out: Inhibition of Cancer Cell Growth (IC50)
Experimental: Each of the compounds was used to treat the cancer LN229 cells and examined first by western and dot blot assays for the degradation of SUMO1 protein and then by cell viability assay for the IC50 values of anticancer activity.
LN229 cell were treated with a series of dilutions of CPD1 and examined by cell viability assay for cell growth inhibition (FIG. 2B). […] Therefore, CPD1 acts as the degrader of SUMO1 protein and inhibitor of SUMO1 conjugation in cancer cells.

[1] = Homo sapiens, LN-229, LN229 cells

SMILES | IC50 [1] [µM] | IC50 (LN229 cells) [µM]
N#Cc1ccc2nc(NC(=O)Nc3cc(Cl)cc(Cl)c3)sc2c1 [Compound 37] | ≤ 5 | –
CCOC(=O)c1ccc2nc(NC(=O)Nc3cccc(C#N)c3)sc2c1 [Compound 53] | ≤ 5 | –
N#Cc1c(F)ccc(NC(=O)Nc2nc3ccc(Cl)cc3s2)c1F [Compound 122] | ≤ 5 | –
N#Cc1ccc2nc(NC(=O)Nc3ccccc3)sc2c1 [Compound 45] | ≤ 5 | –
O=C(Nc1cccc(C(=O)O)c1)Nc1nc2ccc([N+](=O)[O-])cc2s1 [Compound 27] | > 20 | –
O=C(Nc1ccc(Cl)cc1)Nc1nc2ccc([N+](=O)[O-])cc2s1 [Compound 18] | – | > 20
Cc1ccc(NC(=O)Nc2nc3ccc(C#N)cc3s2)nc1 [Compound 35] | > 20 | –
N#Cc1cccc(NC(=O)Nc2nc3ccc(F)cc3s2)c1 [Compound 70] | ≤ 5 | –
N#Cc1ccc(NC(=O)Nc2nc3ccc(Cl)cc3s2)c(F)c1 [Compound 123] | ≤ 20 | –
O=C(Nc1ccccc1)Nc1nc2ccccc2s1 [Compound 11] | > 20 | –
O=C(Nc1ccc(Cl)cc1)Nc1nc2ccccc2s1 [Compound 7] | > 20 | –
O=C(Nc1ccc([N+](=O)[O-])cc1)Nc1nc2ccc(Cl)cc2s1 [Compound 6] | ≤ 5 | –
N#Cc1ccc(NC(=O)Nc2nc3ccc(Cl)cc3s2)cc1 [Compound 94] | ≤ 5 | –
COc1cccc(NC(=O)Nc2nc3ccc(C#N)cc3s2)c1 [Compound 38] | ≤ 5 | –
N#Cc1cccc(NC(=O)Nc2nc3ccc(N)cc3s2)c1 [Compound 77] | > 20 | –
N#Cc1cc(Cl)cc(NC(=O)Nc2nc3ccc(C(F)(F)F)cc3s2)c1 [Compound 115] | ≤ 5 | –
CN1CCN(c2cccc(NC(=O)Nc3nc4ccc(C#N)cc4s3)c2)CC1 [Compound 83] | ≤ 5 | –
N#Cc1cccc(NC(=O)Nc2nc3c(F)cc(F)cc3s2)c1 [Compound 102] | ≤ 5 | –
N#Cc1ccc2nc(NC(=O)Nc3ccnc(Cl)c3)sc2c1 [Compound 99] | ≤ 5 | –
N#Cc1ccc2nc(NC(=O)Nc3cccc(Oc4ccccc4)c3)sc2c1 [Compound 98] | ≤ 5 | –
COC(=O)c1ccc2nc(NC(=O)Nc3cccc([N+](=O)[O-])c3)sc2c1 [Compound 28] | ≤ 20 | –
N#CC1CCc2nc(NC(=O)Nc3cccc(Cl)c3)sc2C1 (stereo not shown) [Compound 97] | ≤ 20 | –
N#Cc1cccc(NC(=O)Nc2nc3ccc(C(=O)N4CCOCC4)cc3s2)c1 [Compound 60] | > 20 | –

SMILES | IC50 [1] [µM] | IC50 (LN229 cells) [µM]
Cc1ccc(NC(=O)Nc2nc3ccc(Cl)cc3s2)cc1C#N [Compound 88] | ≤ 20 | –
O=C(Nc1cccc([N+](=O)[O-])c1)Nc1nc2ccc(F)cc2s1 [Compound 10] | ≤ 5 | –
O=C(Nc1nc2ccc([N+](=O)[O-])cc2s1)c1ccc(F)cc1 [Compound 25] | > 20 | –
CC(C)(C)OC(=O)N1CCc2nc(NC(=O)Nc3cccc(C#N)c3)sc2C1 [Compound 49] | ≤ 20 | –
N#Cc1ccc(NC(=O)Nc2nc3ccc(Cl)cc3s2)c(Cl)c1 [Compound 104] | ≤ 5 | –
O=C(Nc1nc2ccc([N+](=O)[O-])cc2s1)Nc1c(Cl)cccc1Cl [Compound 14] | ≤ 20 | –
O=C1N(c2cccc(Cl)c2)CCCN1c1nc2ccc([N+](=O)[O-])cc2s1 [Compound 29] | > 20 | –
N#Cc1ccc2nc(NC(=O)Nc3ccc4[nH]c(=O)[nH]c4c3)sc2c1 [Compound 108] | > 20 | –
O=C(Nc1ccc(Cl)cc1)Nc1nc2ccc([N+](=O)[O-])cc2s1 [Compound 5] | – | ≤ 5
N#Cc1ccc2nc(NC(=O)Nc3cccc(OCCOCCN)c3)sc2c1 [Compound 121] | – | > 20
CC(C)(C)OC(=O)NC1CCc2nc(NC(=O)Nc3cccc(C#N)c3)sc2C1 (stereo not shown) [Compound 61] | ≤ 5 | –
N#Cc1cccc(NC(=O)Nc2nc3ccccc3s2)c1 [Compound 48] | ≤ 20 | –
O=C(Nc1cccc([N+](=O)[O-])c1)Nc1nc2c(Cl)cccc2s1 [Compound 12] | ≤ 20 | –
N#Cc1cccc(NC(=O)Nc2nc3c(s2)CC(N)CC3)c1 (stereo not shown) [Compound 67] | ≤ 20 | –
N#Cc1cc(Br)cc(NC(=O)Nc2nc3ccc(Cl)cc3s2)c1 [Compound 106] | ≤ 20 | –
CN(C)C(=O)c1ccc2nc(NC(=O)Nc3cccc(C#N)c3)sc2c1 [Compound 64] | > 20 | –
CCOC(=O)C1CCc2nc(NC(=O)Nc3cccc(C#N)c3)sc2C1 (stereo not shown) [Compound 79] | > 20 | –
N#Cc1ccc(NC(=O)Nc2nc3ccc(C(F)(F)F)cc3s2)cc1 [Compound 117] | ≤ 5 | –
COc1ccc2nc(NC(=O)Nc3cccc(C#N)c3)sc2c1 [Compound 43] | ≤ 20 | –
O=C(Nc1ccc(Cl)cc1)Nc1nc2cccc([N+](=O)[O-])c2s1 [Compound 15] | > 20 | –
Cc1nc2ccc(NC(=O)Nc3cccc([N+](=O)[O-])c3)cc2s1 [Compound 22] | ≤ 20 | –
N#Cc1ccc2nc(NC(=O)Nc3ccc(Cl)c(Cl)c3)sc2c1 [Compound 41] | ≤ 5 | –
CC(=O)N1CCc2nc(NC(=O)Nc3cccc(C#N)c3)sc2C1 [Compound 65] | > 20 | –

SMILES | IC50 [1] [µM] | IC50 (LN229 cells) [µM]
N#Cc1cccc(NC(=O)Nc2nc3c(s2)COCC3)c1 [Compound 58] | ≤ 20 | –
N#Cc1cc(NC(=O)Nc2nc3ccc(Cl)cc3s2)ccc1Br [Compound 87] | ≤ 5 | –
N#Cc1cccc(NC(=O)NC2Cc3ccccc3C2)c1 [Compound 46] | > 20 | –
CN1CCc2nc(NC(=O)Nc3cccc(C#N)c3)sc2C1 [Compound 52] | > 20 | –
N#Cc1ccc2nc(NC(=O)C3(c4ccccc4)CC3)sc2c1 [Compound 57] | > 20 | –
CC(=O)Nc1ccc2nc(NC(=O)Nc3cccc(C#N)c3)sc2c1 [Compound 75] | > 20 | –
N#Cc1cccc(NC(=O)Nc2nc3c(s2)CCCC3)c1 [Compound 59] | ≤ 20 | –
N#Cc1ccc(NC(=O)Nc2nc3ccc(Cl)cc3s2)cc1F [Compound 107] | ≤ 5 | –
N#Cc1cccc(NC(=O)N2CCc3ccccc3C2)c1 [Compound 47] | > 20 | –
N#Cc1cccc(NC(=O)Nc2nc3ccc([N+](=O)[O-])cc3s2)c1 [Compound 72] | ≤ 5 | –
COc1cncc(NC(=O)Nc2nc3ccc(C#N)cc3s2)c1 [Compound 81] | > 20 | –
N#Cc1ccc2nc(NC(=O)Nc3cccc(N4CCOCC4)c3)sc2c1 [Compound 82] | ≤ 20 | –
CS(=O)(=O)c1ccc2nc(NC(=O)Nc3cccc(Cl)c3)sc2c1 [Compound 20] | > 20 | –
O=C(Cc1ccc(Cl)cc1)Nc1nc2ccc([N+](=O)[O-])cc2s1 [Compound 26, 2-(4-chlorophenyl)-N-(6-nitro-1,3-benzothiazol-2-yl)acetamide] | ≤ 20 | –
O=C(Nc1ccc(F)c([N+](=O)[O-])c1)Nc1nc2c(Cl)cccc2s1 [Compound 17] | > 20 | –
CC(C)(C)OC(=O)N[C@@H]1CCc2nc(NC(=O)Nc3cccc(C#N)c3)sc2C1 [Compound 62] | ≤ 5 | –
COc1ccc(-c2cccc(NC(=O)Nc3nc4ccc(C#N)cc4s3)c2)cc1 [Compound 33] | ≤ 5 | –
Cc1ccc(-c2cccc(NC(=O)Nc3nc4ccc(C#N)cc4s3)c2)cc1 [Compound 34] | ≤ 5 | –
N#Cc1cccc(NC(=O)Nc2nc3ccc(Cl)cc3s2)c1 [Compound 42] | ≤ 5 | –
N#Cc1ccc2nc(NC(=O)Nc3cccc([N+](=O)[O-])c3)sc2c1 [Compound 23] | ≤ 5 | –
CC(C(=O)Nc1nc2ccc(C#N)cc2s1)c1ccccc1 (stereo not shown) [Compound 54] | > 20 | –
